Reference: article PMC9506254, “Self-Emulsifying Formulations to Increase the Oral Bioavailability of 4,6,4′-Trimethylangelicin as a Possible Treatment for Cystic Fibrosis” (Pharmaceutics, 2022)

Experiments:
[1] = In vivo pharmacokinetics after oral gavage; details: mice
Method: All the experimental procedures involving animals were conducted in compliance with national and international guidelines for the handling and use of experimental animals (Authorization no. 853-2018-PR, 11 November 2018) and appropriately designed to minimize their pain or discomfort. All the animals were maintained in IVC cages under controlled conditions, with a 12/12 h dark/light cycle and free access to food and drink. For the pharmacokinetic analysis, a 20 mg/kg dose of TMA, suspended in water or dissolved in formulations A.1 and B.1, was administered to mice by oral gavage, after an overnight fast. Plasma samples (n = 3 per time point) were collected from the submandibular plexus before and 0.25, 0.5, 1, 2, 3, 4, 6, 24, and 48 h after the administration of TMA. The main PK parameters were calculated by means of the Microsoft Excel plug-in PK Solver, using standard formulae [25]. The data were analyzed using the software GraphPad Prism 8.0 (GraphPad Software Inc., San Diego, CA, USA) ver. 8.0, and, if not otherwise stated, are expressed as mean ± SD. Statistical analysis was performed using Student’s t test or one-way ANOVA, when appropriate, and p < 0.05 was considered statistically significant.
TMA was extracted from the samples by treating 100 µL of plasma with 300 µL of cold acetonitrile spiked with 80 nM of IS, and then the samples were centrifuged for 10 min at 12,000× g (Hettich Mikro 120 benchtop centrifuge) and 25 °C. 10 μL of the supernatant were injected into the UHPLC system. The quantification of TMA was carried out by external calibration of the normalized signals using a seven-point calibration curve obtained by spiking blank plasma with TMA in the range 20–3000 nM. […] The metabolites related to TMA were quantified in plasma by comparing the normalized area with the TMA calibration curve as there were no suitable analytical standards available. The data obtained should be considered semiquantitative, as it is not possible to ensure the same molar response factor for TMA and its metabolites under electrospray conditions.

[2] = Solubility of TMA in oils, surfactants, co-surfactants/co-solvents; format: physicochemical; details: 25 °C, 24 h, n = 3
Method: The solubility of TMA in different oils, surfactants, co-surfactants/co-solvent was determined by pouring an excess of TMA in a 2 mL glass vial containing 1 g of each excipient. The mixtures were vortexed and kept at 25 °C for 24 h, and then the samples were centrifuged at 15,000× g rpm for 10 min to remove the undissolved drug. The supernatant was diluted with a suitable solvent and the TMA was quantified by HPLC (Agilent 1220 Infinity LC, Agilent Technologies, Santa Clara, CA, USA) equipped with a UV-vis detector and a Zorbax 300SB C 18 column (4.6 × 250 mm, 5 µm, Agilent Technologies, Santa Clara, CA, USA). For the analysis of the organic solutions of TMA, a volume of 20 µL was injected into the column and a mixture of methanol and water (95:5) was used as mobile phase with a flow rate of 0.8 mL/min. Instead, for the analysis of aqueous solutions, 100 µL of sample was injected and a mixture 75:25 of methanol and water was used as mobile phase at a flow rate of 0.9 mL/min. The UV was set at a wavelength of 251 nm.

[3] = In vitro dissolution test in simplified FaSSIF and FeSSIF; format: physicochemical; details: FeSSIF compared with FaSSIF
Method: In vitro drug dissolution tests were performed using the USP 24 method with a dissolution apparatus 2 (Sotax AT7 Smart, Sotax, Allschwil, Switzerland) at 100 rpm. Dissolution tests were carried out under sink conditions at 37 ± 0.5 °C in 900 mL of two simplified simulated intestinal fluids to simulate the fed and fasted states. The composition of simplified FaSSIF (fasted-state simulated intestinal fluid) and FeSSIF (fed-state simulated intestinal fluid) buffers were those reported by Zoeller and Klein [24]. Samples (1 mL) were withdrawn at 5, 10, 15, 30, 45, 60, 90, 120, 240, and 300 min and the volume removed was replaced with an equal volume of temperature-equilibrated media. The samples were filtered through a 0.45 µm acetate cellulose filter and the TMA concentration was determined by HPLC-UV using the method reported in Section 2.3. The results were averaged from three replicated experiments.

[4] = Metabolic stability with human liver microsomes; format: in vitro ADME; details: 1 µM, 37 °C, NADPH, pH 7.4
Method: The metabolic stability of TMA was assessed by incubating the compound with human liver microsomes (HLMs) (BD Bioscience, Franklin Lakes, NJ, USA), as already described. Briefly, TMA was dissolved in DMSO (1 µM) and incubated at 37 °C for 10 and 30 min in 0.1 M phosphate buffer containing 200 µg of microsomes and 10 mM NADPH, pH 7.4. At the end of incubation, the reaction was stopped by addition of 200 µL cold acetonitrile. After centrifugation for 10 min at 12,000× g (Hettich Mikro 120 benchtop centrifuge), supernatants were collected and analyzed by means of ultra-high pressure liquid chromatography coupled to high-resolution mass spectrometry (UHPLC-HRMS) to assess metabolic stability of TMAas described in Section 2.8.1. […]
The UHPLC-HRMS system was equipped with Agilent 1260 Infinity II LC System coupled to an Agilent 6545 LC/Q-TOF mass analyzer (Agilent Technologies, Palo Alto, Santa Clara, CA, USA). […] The mobile phase gradient profile was as follows (t in min): t0–3 2% B; t3–18 2–100% B, t18–20 100% B; t20–30 0% B. The MS conditions were: electrospray (ESI) ionization in positive mode, gas temperature 325 °C, drying gas 10 L/min, nebulizer 20 psi, sheath gas temperature 400 °C, sheath gas flow 12 L/min, VCap 4000 V, nozzle voltage 0 V, fragmentor 180 V. Centroid full scan mass spectra were recorded in the range 100–1000 m/z with a scan rate of 1 spectrum/s. […]

[5] = Lipophilicity (Log p) and BCS classification from the literature; format: physicochemical; details: inferred from Log p and low water solubility
[6] = 20 mg/kg TMA, oral gavage, overnight fast, plasma TMA, mean ± S.D.

Compound | TMA-related metabolites in mouse plasma ([1]; 20 mg/kg TMA oral, semiquantitative, TMA calibration curve, LOD about 10 nM) | TMA Solubility ([2]; in Capryol PGMC (co-surfactant)) | TMA Solubility ([2]; in Cremophor EL (surfactant)) | TMA Solubility ([2]; in Ethanol (co-solvent)) | TMA Solubility ([2]; in Labrafac Lipophile WL1349 (oil)) | TMA Solubility ([2]; in Lauroglycol FCC (co-surfactant)) | TMA Solubility ([2]; in Maisine CC (oil)) | TMA Solubility ([2]; in Transcutol HP (co-solvent)) | TMA Solubility ([2]; in Tween 80 (surfactant)) | Amount of free TMA dissolved [3] | Initial amount of TMA metabolized by HLM enzymes ([4]; 10 min) | Degradation of TMA by HLM enzymes ([4]; 30 min) | CL/F ([1]; 20 mg/kg TMA, oral gavage, overnight fast, mean ± S.D.) | AUC0-inf [1, 6] | Cmax [1, 6] | Tmax [1, 6] | t1/2 [1, 6] | BCS classification system class [5]
TMA-D | main metabolite | – | – | – | – | – | – | – | – | – | – | – | – | – | – | – | – | –
Cc1cc(=O)oc2c1cc(C)c1occ(C)c12 [TMA, 4,6,4′-trimethylangelicin] | – | 7346 ± 380 µg/mL | 9091 ± 217 µg/mL | 2509 ± 52 µg/mL | 4639 ± 170 µg/mL | 6484 ± 92 µg/mL | 6340 ± 377 µg/mL | 9568 ± 131 µg/mL | 7040 ± 120 µg/mL | increases significantly | 67 ± 15% | 90 ± 15% | 0.073 ± 0.029 mL/h/g | 0.29783 ± 0.11913 µM·h | 186 ± 21.1 nM | 0.38 ± 0.18 h | 1.71 ± 0.16 h | class II
